From patent US20030144249A1, “Use of organophosphorous compounds for producing a medicament for treating infections” (priority 2000, published 2003)
Where a name gives a salt, the structure may show the parent alone.

Experiments:
[1] = tested on: Lepidium; assay: Herbicidal activity, water, pre-emergence; type: in vivo; conditions: read-out: Herbicidal activity, Lepidium
Description: (§1) Herbicidal activity is determined using standard methods.
(§2) Substances 1 to 8 listed on page 5 are again investigated.

[2] = tested on: Rice; assay: Herbicidal activity, water, pre-emergence; type: in vivo; conditions: Oryza sativa, read-out: Herbicidal activity, Rice
Description: as §1, §2

[3] = tested on: Solanum; assay: Herbicidal activity, water, pre-emergence; type: in vivo; conditions: read-out: Herbicidal activity, Solanum
Description: as §1, §2

[4] = tested on: Echinochloa; assay: Herbicidal activity, water, pre-emergence; type: in vivo; conditions: read-out: Herbicidal activity, Echinochloa
Description: as §1, §2

[5] = target: T1, DOXP reductoisomerase from Helicobacter pylori (Helicobacter pylori, UniProt P56139); assay: DOXP reductoisomerase inhibition (NADPH oxidation at 365 nm); type: biochemical
T1 construct: made in house; host or cells: Helicobacter pylori (so in the source)
T1 sequence (P56139 1-368): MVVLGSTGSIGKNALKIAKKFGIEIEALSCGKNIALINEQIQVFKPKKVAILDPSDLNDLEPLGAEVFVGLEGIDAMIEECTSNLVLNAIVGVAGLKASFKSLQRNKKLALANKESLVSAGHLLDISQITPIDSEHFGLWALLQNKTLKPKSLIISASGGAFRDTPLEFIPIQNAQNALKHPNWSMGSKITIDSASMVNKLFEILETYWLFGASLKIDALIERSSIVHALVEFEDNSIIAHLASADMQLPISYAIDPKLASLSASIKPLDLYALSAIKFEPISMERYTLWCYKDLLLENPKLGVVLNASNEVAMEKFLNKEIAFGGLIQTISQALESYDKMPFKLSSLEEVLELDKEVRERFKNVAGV
Description: The DOXP reductoisomerase of Helicobacter pylori was expressed as a recombinant protein in Helicobacter pylori. The activity of DOXP reductoisomerase was determined in a batch containing 100 mM tris-HCl (pH=7.5), 1 mM MnCl2, 0.3 mM NADPH and 1 mM DOXP.
The oxidation of NADPH was here measured at 365 nm in a spectrophotometer. The inhibition studies were performed by measuring the activity of DOXP reductoisomerase in the presence of compounds 1 to 8 (see page 5) at various concentrations between 0. 1 and 100 μmol l^−1.

[6] = tested on: Setaria viridis; assay: Herbicidal activity, soil, post-emergence; type: in vivo; conditions: read-out: Herbicidal activity, Setaria viridis
Description: as §1, §2

[7] = tested on: Amaranthus retroflexus; assay: Herbicidal activity, soil, post-emergence; type: in vivo; conditions: read-out: Herbicidal activity, Amaranthus retroflexus
Description: as §1, §2

[8] = tested on: Cyperus esculentus; assay: Herbicidal activity, soil, post-emergence; type: in vivo; conditions: read-out: Herbicidal activity, Cyperus esculentus
Description: as §1, §2

[9] = tested on: Sinapis arvensis; assay: Herbicidal activity, soil, post-emergence; type: in vivo; conditions: Mutarda arvensis, read-out: Herbicidal activity, Sinapis arvensis
Description: as §1, §2

[10] = tested on: Beta vulgaris; assay: Herbicidal activity, soil, post-emergence; type: in vivo; conditions: read-out: Herbicidal activity, Beta vulgaris
Description: as §1, §2

[11] = tested on: Alopecurus myosuroides; assay: Herbicidal activity, soil, post-emergence; type: in vivo; conditions: read-out: Herbicidal activity, Alopecurus myosuroides
Description: as §1, §2

[12] = tested on: Galium aperine; assay: Herbicidal activity, soil, post-emergence; type: in vivo; conditions: read-out: Herbicidal activity, Galium aperine
Description: as §1, §2

[13] = tested on: Abutilon theophrasti; assay: Herbicidal activity, soil, post-emergence; type: in vivo; conditions: read-out: Herbicidal activity, Abutilon theophrasti
Description: as §1, §2

[14] = tested on: Zea mays; assay: Herbicidal activity, soil, post-emergence; type: in vivo; conditions: read-out: Herbicidal activity, Zea mays
Description: as §1, §2

[15] = tested on: Avena fatua; assay: Herbicidal activity, soil, post-emergence; type: in vivo; conditions: read-out: Herbicidal activity, Avena fatua
Description: as §1, §2

[16] = tested on: Xanthium strumarium; assay: Herbicidal activity, soil, post-emergence; type: in vivo; conditions: read-out: Herbicidal activity, Xanthium strumarium
Description: as §1, §2

[17] = tested on: Setaria viridis; assay: Herbicidal activity, soil, pre-emergence; type: in vivo; conditions: read-out: Herbicidal activity, Setaria viridis
Description: as §1, §2

[18] = tested on: Amaranthus retroflexus; assay: Herbicidal activity, soil, pre-emergence; type: in vivo; conditions: read-out: Herbicidal activity, Amaranthus retroflexus
Description: as §1, §2

[19] = tested on: Cyperus esculentus; assay: Herbicidal activity, soil, pre-emergence; type: in vivo; conditions: read-out: Herbicidal activity, Cyperus esculentus
Description: as §1, §2

[20] = tested on: Sinapis arvensis; assay: Herbicidal activity, soil, pre-emergence; type: in vivo; conditions: Mutarda arvensis, read-out: Herbicidal activity, Sinapis arvensis
Description: as §1, §2

[21] = tested on: Beta vulgaris; assay: Herbicidal activity, soil, pre-emergence; type: in vivo; conditions: read-out: Herbicidal activity, Beta vulgaris
Description: as §1, §2

[22] = tested on: Alopecurus myosuroides; assay: Herbicidal activity, soil, pre-emergence; type: in vivo; conditions: read-out: Herbicidal activity, Alopecurus myosuroides
Description: as §1, §2

[23] = tested on: Galium aperine; assay: Herbicidal activity, soil, pre-emergence; type: in vivo; conditions: read-out: Herbicidal activity, Galium aperine
Description: as §1, §2

[24] = tested on: Abutilon theophrasti; assay: Herbicidal activity, soil, pre-emergence; type: in vivo; conditions: read-out: Herbicidal activity, Abutilon theophrasti
Description: as §1, §2

[25] = tested on: Zea mays; assay: Herbicidal activity, soil, pre-emergence; type: in vivo; conditions: read-out: Herbicidal activity, Zea mays
Description: as §1, §2

[26] = tested on: Avena fatua; assay: Herbicidal activity, soil, pre-emergence; type: in vivo; conditions: read-out: Herbicidal activity, Avena fatua
Description: as §1, §2

[27] = tested on: Xanthium strumarium; assay: Herbicidal activity, soil, pre-emergence; type: in vivo; conditions: read-out: Herbicidal activity, Xanthium strumarium
Description: as §1, §2

With CN(CN(O)C(=O)C1CCCCC1)CP(C)(=O)O [Compound 3, N-((N-Cyclohexanoyl-N-hydroxy)aminomethyl)-N-methyl(aminomethylphosphinic acid, sodium salt] the pest or weed control at 4000 g/ha [1] was 50%, the plant injury at 4000 g/ha [2] was 40% and the pest or weed control at 4000 g/ha [3] was 0%. It also gave a pest or weed control at 4000 g/ha [4] of 50%, an IC50 [5] of 170 nM and a pest or weed control at 2000 g/ha [6] of 70%. For the same compound, the pest or weed control at 2000 g/ha [7] was 60%, the pest or weed control at 2000 g/ha [8] was 0% and the pest or weed control at 2000 g/ha [9] was 80%. The plant injury at 2000 g/ha [10] was 60%, the pest or weed control at 2000 g/ha [11] was 60% and the pest or weed control at 2000 g/ha [12] was 60%. It also gave a pest or weed control at 2000 g/ha [13] of 60%, a plant injury at 2000 g/ha [14] of 70% and a pest or weed control at 2000 g/ha [15] of 70%. It also gave a pest or weed control at 2000 g/ha [16] of 60%, a pest or weed control at 2000 g/ha [17] of 0% and a pest or weed control at 2000 g/ha [18] of 0%. The pest or weed control at 2000 g/ha [19] was 0%, the pest or weed control at 2000 g/ha [20] was 30% and the plant injury at 2000 g/ha [21] was 30%. It also gave a pest or weed control at 2000 g/ha [22] of 30%, a pest or weed control at 2000 g/ha [23] of 0% and a pest or weed control at 2000 g/ha [24] of 0%. For the same compound, the plant injury at 2000 g/ha [25] was 0%, the pest or weed control at 2000 g/ha [26] was 0% and the pest or weed control at 2000 g/ha [27] was 0%.
Work on CP(=O)(CNCN(O)C(=O)CCCN1CCOCC1)Oc1ccccc1 (stereo not drawn) [Compound 4, N-[(4-N-Morpholinobutanoyl-N-hydroxy)aminomethyl]aminomethyl(methyl)phosphinic acid phenyl ester] yielded a pest or weed control at 4000 g/ha [1] of 40%, a plant injury at 4000 g/ha [2] of 30% and a pest or weed control at 4000 g/ha [3] of 30%. For the same compound, the pest or weed control at 4000 g/ha [4] was 70%, the IC50 [5] was 110 nM and the pest or weed control at 2000 g/ha [6] was 90%. It also gave a pest or weed control at 2000 g/ha [7] of 40%, a pest or weed control at 2000 g/ha [8] of 0% and a pest or weed control at 2000 g/ha [9] of 80%. For the same compound, the plant injury at 2000 g/ha [10] was 50%, the pest or weed control at 2000 g/ha [11] was 70% and the pest or weed control at 2000 g/ha [12] was 70%. It also gave a pest or weed control at 2000 g/ha [13] of 50%, a plant injury at 2000 g/ha [14] of 70% and a pest or weed control at 2000 g/ha [15] of 70%. It also gave a pest or weed control at 2000 g/ha [16] of 90%, a pest or weed control at 2000 g/ha [17] of 0% and a pest or weed control at 2000 g/ha [18] of 20%. The pest or weed control at 2000 g/ha [19] was 0%, the pest or weed control at 2000 g/ha [20] was 70% and the plant injury at 2000 g/ha [21] was 60%. For the same compound, the pest or weed control at 2000 g/ha [22] was 30%, the pest or weed control at 2000 g/ha [23] was 0% and the pest or weed control at 2000 g/ha [24] was 0%. For the same compound, the plant injury at 2000 g/ha [25] was 30%, the pest or weed control at 2000 g/ha [26] was 60% and the pest or weed control at 2000 g/ha [27] was 0%.
CP(=O)(O)C(O)CNCN(O)C(=O)c1ccco1 (stereo not drawn) [Compound 5, 2-(N-2-Furanoyl-N-hydroxy-aminomethyl)amino-1-hydroxyethylmethylphosphinic acid, sodium salt] was tested, and the pest or weed control at 4000 g/ha [1] was 40%, the plant injury at 4000 g/ha [2] was 40% and the pest or weed control at 4000 g/ha [3] was 0%. The pest or weed control at 4000 g/ha [4] was 80%, the IC50 [5] was 130 nM and the pest or weed control at 2000 g/ha [6] was 95%. It also gave a pest or weed control at 2000 g/ha [7] of 30%, a pest or weed control at 2000 g/ha [8] of 0% and a pest or weed control at 2000 g/ha [9] of 90%. It also gave a plant injury at 2000 g/ha [10] of 40%, a pest or weed control at 2000 g/ha [11] of 70% and a pest or weed control at 2000 g/ha [12] of 80%. For the same compound, the pest or weed control at 2000 g/ha [13] was 40%, the plant injury at 2000 g/ha [14] was 80% and the pest or weed control at 2000 g/ha [15] was 80%. The pest or weed control at 2000 g/ha [16] was 60%, the pest or weed control at 2000 g/ha [17] was 0% and the pest or weed control at 2000 g/ha [18] was 0%. It also gave a pest or weed control at 2000 g/ha [19] of 0%, a pest or weed control at 2000 g/ha [20] of 50% and a plant injury at 2000 g/ha [21] of 30%. For the same compound, the pest or weed control at 2000 g/ha [22] was 50%, the pest or weed control at 2000 g/ha [23] was 0% and the pest or weed control at 2000 g/ha [24] was 0%. It also gave a plant injury at 2000 g/ha [25] of 0%, a pest or weed control at 2000 g/ha [26] of 0% and a pest or weed control at 2000 g/ha [27] of 0%.
O=CN(O)CNCP(=O)(O)O [Compound 8] gave a pest or weed control at 2000 g/ha [1] of 30%, a plant injury at 2000 g/ha [2] of 30% and a pest or weed control at 2000 g/ha [3] of 30%. For the same compound, the pest or weed control at 2000 g/ha [4] was 40%, the IC50 [5] was 60 nM and the pest or weed control at 1000 g/ha [6] was 90%. For the same compound, the pest or weed control at 1000 g/ha [7] was 50%, the pest or weed control at 1000 g/ha [8] was 0% and the pest or weed control at 1000 g/ha [9] was 70%. The plant injury at 1000 g/ha [10] was 50%, the pest or weed control at 1000 g/ha [11] was 80% and the pest or weed control at 1000 g/ha [12] was 70%. The pest or weed control at 1000 g/ha [13] was 50%, the plant injury at 1000 g/ha [14] was 70% and the pest or weed control at 1000 g/ha [15] was 80%. The pest or weed control at 1000 g/ha [16] was 90%, the pest or weed control at 1000 g/ha [17] was 0% and the pest or weed control at 1000 g/ha [18] was 20%. It also gave a pest or weed control at 1000 g/ha [19] of 0%, a pest or weed control at 1000 g/ha [20] of 30% and a plant injury at 1000 g/ha [21] of 40%. It also gave a pest or weed control at 1000 g/ha [22] of 30%, a pest or weed control at 1000 g/ha [23] of 0% and a pest or weed control at 1000 g/ha [24] of 0%. For the same compound, the plant injury at 1000 g/ha [25] was 30%, the pest or weed control at 1000 g/ha [26] was 30% and the pest or weed control at 1000 g/ha [27] was 0%.
